Source: patent US10669272B2, “Substituted naphthyridinone compounds useful as T cell activators” (BRISTOL-MYERS SQUIBB COMPANY, priority 2018, dated 2020)
Where two headings read alike, the source gives them in different places.

What was measured:
human DGKζ = biological target: T1, human DGKζ (Homo sapiens, UniProt Q13574); test: DGKζ LIPGLO assay (extruded liposome substrate), in vitro DGK inhibition; format: biochemical; conditions: liposome (LIPGLO) assay; read-out: DGKz LIPGLO IC50
T1 construct: TVMV protease cleavage site (C); Hexa-His (C); made in house; host or cells: Sf9 insect cells (baculovirus, Bac-to-Bac)
T1 sequence (Q13574 with tags, fused parts or gaps isoform Q13574-4): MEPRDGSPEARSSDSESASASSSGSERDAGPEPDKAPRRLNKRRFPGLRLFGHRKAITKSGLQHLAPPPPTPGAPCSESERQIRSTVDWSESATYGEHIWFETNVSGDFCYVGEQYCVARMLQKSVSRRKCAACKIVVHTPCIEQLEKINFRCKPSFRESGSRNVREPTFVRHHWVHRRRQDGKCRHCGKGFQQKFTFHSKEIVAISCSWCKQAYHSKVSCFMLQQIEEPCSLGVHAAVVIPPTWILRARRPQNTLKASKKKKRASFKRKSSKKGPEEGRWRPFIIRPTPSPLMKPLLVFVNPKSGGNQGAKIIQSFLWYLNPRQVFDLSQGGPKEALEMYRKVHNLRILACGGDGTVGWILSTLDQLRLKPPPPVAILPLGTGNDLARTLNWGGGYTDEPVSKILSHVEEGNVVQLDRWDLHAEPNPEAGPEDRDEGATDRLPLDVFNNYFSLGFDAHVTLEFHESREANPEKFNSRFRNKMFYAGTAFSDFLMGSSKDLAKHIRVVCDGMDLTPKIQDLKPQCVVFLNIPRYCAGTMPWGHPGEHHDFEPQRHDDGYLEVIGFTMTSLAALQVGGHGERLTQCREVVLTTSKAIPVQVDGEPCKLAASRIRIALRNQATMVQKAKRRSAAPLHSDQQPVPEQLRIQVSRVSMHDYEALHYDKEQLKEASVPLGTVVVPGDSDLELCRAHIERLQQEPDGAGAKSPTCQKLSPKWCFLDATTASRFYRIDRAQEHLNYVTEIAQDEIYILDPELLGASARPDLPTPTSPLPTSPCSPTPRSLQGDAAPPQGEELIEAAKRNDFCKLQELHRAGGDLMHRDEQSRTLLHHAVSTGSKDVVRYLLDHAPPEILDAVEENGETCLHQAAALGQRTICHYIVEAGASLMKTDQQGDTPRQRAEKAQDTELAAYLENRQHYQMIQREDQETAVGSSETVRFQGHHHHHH

human DGKα = biological target: T2, human DGKα (Homo sapiens, UniProt P23743); test: DGKα LIPGLO assay (extruded liposome substrate), in vitro DGK inhibition; format: biochemical; conditions: liposome (LIPGLO) assay; read-out: DGKa LIPGLO IC50
T2 construct: TVMV protease cleavage site (C); Hexa-His (C); made in house; host or cells: Sf9 insect cells (baculovirus, Bac-to-Bac)
T2 sequence (P23743 with tags, fused parts or gaps): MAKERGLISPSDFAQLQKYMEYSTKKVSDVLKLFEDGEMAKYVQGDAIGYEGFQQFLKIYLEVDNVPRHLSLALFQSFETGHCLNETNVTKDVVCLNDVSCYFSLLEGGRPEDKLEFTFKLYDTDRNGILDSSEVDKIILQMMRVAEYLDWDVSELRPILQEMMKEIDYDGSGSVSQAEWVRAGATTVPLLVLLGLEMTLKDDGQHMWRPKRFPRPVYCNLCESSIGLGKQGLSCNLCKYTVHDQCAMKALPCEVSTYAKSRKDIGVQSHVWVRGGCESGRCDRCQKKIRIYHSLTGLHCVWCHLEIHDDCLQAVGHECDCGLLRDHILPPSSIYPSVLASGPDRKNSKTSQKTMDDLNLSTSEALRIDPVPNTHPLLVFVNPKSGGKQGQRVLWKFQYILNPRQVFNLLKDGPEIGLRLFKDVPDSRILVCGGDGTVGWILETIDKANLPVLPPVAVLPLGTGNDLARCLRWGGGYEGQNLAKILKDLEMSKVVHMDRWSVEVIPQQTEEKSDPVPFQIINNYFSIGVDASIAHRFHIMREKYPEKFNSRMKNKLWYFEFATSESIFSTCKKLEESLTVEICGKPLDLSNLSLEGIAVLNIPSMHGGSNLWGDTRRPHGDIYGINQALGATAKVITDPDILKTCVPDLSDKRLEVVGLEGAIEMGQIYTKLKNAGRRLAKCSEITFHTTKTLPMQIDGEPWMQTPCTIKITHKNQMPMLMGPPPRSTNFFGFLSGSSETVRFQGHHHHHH

naïve human CD8 T cells = test: Human CD8 T cells IFN-γ assay; format: cell-based; conditions: normalized to 3 μM reference compound with anti-CD3 plus anti-CD28 as 100% activation, read-out: HuCD8 INFG Normalized EC50;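 further: Naïve human CD8 T cells stimulated with plate-bound anti-CD3 and soluble anti-CD28, IFN-γ in supernatant quantified by AlphaLISA and converted to pg/mL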
Human venous whole blood = test: Human whole blood IFN-γ assay; format: cell-based; conditions: human whole blood, normalized to 3 μM reference compound with anti-CD3 plus anti-CD28 as 100% activation, read-out: INFg Whole Blood Normalized Agonist EC50;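 further: blood from healthy donors exposed to compound for 1 h before stimulation with anti-CD3 and anti-CD28 at 1 µg/mL each, IFN-γ quantified in supernatant by AlphaLISA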
Method: Human Whole Blood IFN-γ Assay
Human venous whole blood (22.5 μL per well), obtained from healthy donors, was pre-treated with compounds for one hour at 37° C. in a humidified 95% air/5% CO2 incubator. The blood was stimulated with 2.5 μL anti-human CD3 and anti-CD28 mAb at a final concentration of 1 μg/mL each for 24 hours at 37° C. IFN-γ in the supernatants was measured using AlphLISA kit (Cat # AL217).

| SMILES | IC50 (human DGKζ) [nM] | IC50 (human DGKα) [nM] | EC50 (naïve human CD8 T cells) [nM] | EC50 (Human venous whole blood) [nM] | EC50 (naïve human CD8 T cells; Homo sapiens, T-cell, 20 h) [nM] | EC50 (Human venous whole blood; Homo sapiens, 24 h) [nM] |
| --- | --- | --- | --- | --- | --- | --- |
| CC(C)Oc1ncccc1C(c1ccc(F)cc1)N1C[C@H](C)N(c2cc(=O)n(C)c3ccc(C#N)nc23)C[C@H]1C (single isomer, unassigned) [Example 208] | 680 | 11000 | 250 | 1000 |  |  |
| COc1ncccc1C(c1ccc(F)cc1)N1C[C@H](C)N(c2cc(=O)n(C)c3ccc(C#N)nc23)C[C@H]1C (single isomer, unassigned) [Example 209] | 320 | 15000 |  |  | 170 | 1500 |
| C[C@@H]1CN(c2cc(=O)n(C)c3ccc(C#N)nc23)[C@@H](C)CN1C(c1ccc(F)cc1)c1ccc(Cl)cn1 (single isomer, unassigned) [Example 211] | 150 | 39 |  |  | 29 | 800 |
| C[C@@H]1CN(c2cc(=O)n(C)c3ccc(C#N)nc23)[C@@H](C)CN1C(c1ccc(F)cc1)c1ccc(Cl)cn1 (single isomer, unassigned) [Example 212] | 590 | 210 | 57 | 890 |  |  |
| Cc1ccc(C(c2ccc(Cl)cc2)N2C[C@H](C)N(c3cc(=O)n(C)c4ccc(C#N)nc34)C[C@H]2C)nc1 (single isomer, unassigned) [Example 213] | 790 | 360 | 1100 |  |  | 460 |
| Cc1ccc(C(c2ccc(Cl)cc2)N2C[C@H](C)N(c3cc(=O)n(C)c4ccc(C#N)nc34)C[C@H]2C)nc1 (single isomer, unassigned) [Example 214] | 290 | 72 | 120 | 620 |  |  |
| Cc1ccc(C(c2cccc(F)c2)N2C[C@H](C)N(c3cc(=O)n(C)c4ccc(C#N)nc34)C[C@H]2C)nc1 (single isomer, unassigned) [Example 215] | 530 | 660 | 33 | 2100 |  |  |
| Cc1ccc(C(c2cccc(F)c2)N2C[C@H](C)N(c3cc(=O)n(C)c4ccc(C#N)nc34)C[C@H]2C)nc1 (single isomer, unassigned) [Example 216] | 210 | 180 | 74 | 130 |  |  |
| C[C@@H]1CN(c2c(Cl)c(=O)n(C)c3ccc(C#N)nc23)[C@@H](C)CN1C(c1ccccc1)c1ccc(F)cc1 (single isomer, unassigned) [Example 217] | 140000 | 50000 |  |  | 7800 | 20000 |
| C[C@@H]1CN(c2c(Cl)c(=O)n(C)c3ccc(C#N)nc23)[C@@H](C)CN1C(c1ccccc1)c1ccc(F)cc1 (single isomer, unassigned) [Example 218] | > 250000 | 9500 | 10000 | 20000 |  |  |
| C[C@@H]1CN(c2cc(=O)n(C)c3ccc(C#N)nc23)[C@@H](C)CN1C(c1ccccc1)c1ccc(OC(F)(F)F)cc1 (single isomer, unassigned) [Example 221] | 750 | 1200 |  | 3000 | 42 |  |
| C[C@@H]1CN(c2cc(=O)n(C)c3ccc(C#N)nc23)[C@@H](C)CN1C(c1ccccc1)c1ccc(OC(F)(F)F)cc1 (single isomer, unassigned) [Example 222] | 710 | 290 | 46 | 680 |  |  |
| Cc1cccc(C(c2ccc(F)cc2)N2C[C@H](C)N(c3cc(=O)n(C)c4ccc(C#N)nc34)C[C@H]2C)c1 (single isomer, unassigned) [Example 223] | 34 | 280 |  |  | 29 | 870 |
| Cc1cccc(C(c2ccc(F)cc2)N2C[C@H](C)N(c3cc(=O)n(C)c4ccc(C#N)nc34)C[C@H]2C)c1 (single isomer, unassigned) [Example 224] | 57 | 1500 | 24 | 1000 |  |  |
| CCc1cc(F)ccc1C(c1ccc(Cl)cc1)N1C[C@H](C)N(c2cc(=O)n(C)c3ccc(C#N)nc23)C[C@H]1C (single isomer, unassigned) [Example 226] | 1400 | 67000 | 67 | 1700 |  |  |
| CCc1cc(F)ccc1C(c1ccc(F)cc1)N1C[C@H](C)N(c2cc(=O)n(C)c3ccc(C#N)nc23)C[C@H]1C (single isomer, unassigned) [Example 227] | 1000 | > 250000 |  | 13000 | 16 |  |
| CCc1cc(F)ccc1C(c1ccc(F)cc1)N1C[C@H](C)N(c2cc(=O)n(C)c3ccc(C#N)nc23)C[C@H]1C (single isomer, unassigned) [Example 228] | 1400 | 58000 | 31 | 2800 |  |  |

| SMILES | IC50 (human DGKζ) [nM] | IC50 (human DGKα) [nM] | EC50 (naïve human CD8 T cells) [nM] | EC50 (Human venous whole blood) [nM] | EC50 (naïve human CD8 T cells; Homo sapiens, T-cell, 20 h) [nM] | EC50 (Human venous whole blood; Homo sapiens, 24 h) [nM] |
| --- | --- | --- | --- | --- | --- | --- |
| CCOc1cc(F)ccc1C(c1ccc(F)cc1)N1C[C@H](C)N(c2cc(=O)n(C)c3ccc(C#N)nc23)C[C@H]1C (single isomer, unassigned) [Example 229] | 450 | 58000 | 1000 |  |  | 8300 |
| CCOc1cc(F)ccc1C(c1ccc(F)cc1)N1C[C@H](C)N(c2cc(=O)n(C)c3ccc(C#N)nc23)C[C@H]1C (single isomer, unassigned) [Example 230] | 490 | 26000 | 370 | 5300 |  |  |
| CCc1cc(F)ccc1C(c1ccc(Cl)cc1)N1C[C@H](C)N(c2cc(=O)n(C)c3ccc(OC)nc23)C[C@H]1C (single isomer, unassigned) [Example 231] | 3700 | 240000 | 1100 |  |  | 20000 |
| CCc1cc(F)ccc1C(c1ccc(Cl)cc1)N1C[C@H](C)N(c2cc(=O)n(C)c3ccc(OC)nc23)C[C@H]1C (single isomer, unassigned) [Example 232] | 1700 | 240000 | 10000 | 20000 |  |  |
| CCc1cc(F)ccc1C(c1ccc(F)cc1)N1C[C@H](C)N(c2cc(=O)n(C)c3ccc(OC)nc23)C[C@H]1C (single isomer, unassigned) [Example 233] | 3600 | 27000 | 10000 |  |  | 20000 |
| CCc1cc(F)ccc1C(c1ccc(F)cc1)N1C[C@H](C)N(c2cc(=O)n(C)c3ccc(OC)nc23)C[C@H]1C (single isomer, unassigned) [Example 234] | 8700 | 240000 | 2500 | 20000 |  |  |
| CCc1ccccc1C(c1ccc(F)cc1)N1C[C@H](C)N(c2cc(=O)n(C)c3ccc(OC)nc23)C[C@H]1C (single isomer, unassigned) [Example 235] | 4800 | 81000 | 1500 |  |  | 20000 |
| CCc1ccccc1C(c1ccc(F)cc1)N1C[C@H](C)N(c2cc(=O)n(C)c3ccc(OC)nc23)C[C@H]1C (single isomer, unassigned) [Example 236] | 11000 | 240000 | 10000 | 20000 |  |  |
| C[C@@H]1CN(c2cc(=O)n(C)c3ccc(C#N)nc23)[C@@H](C)CN1C(c1ccc(F)cc1)c1cccc(F)c1 (single isomer, unassigned) [Example 249] | 440 | 820 |  |  | 32 | 690 |
| C[C@@H]1CN(c2cc(=O)n(C)c3ccc(C#N)nc23)[C@@H](C)CN1C(c1ccccc1)c1c(F)cccc1F (single isomer, unassigned) [Example 272] | 450 | 990 |  | 2500 | 79 |  |
| C[C@@H]1CN(c2cc(=O)n(C)c3ccc(C#N)nc23)[C@@H](C)CN1C(c1ccc(F)cc1)c1c(F)cccc1F (single isomer, unassigned) [Example 274] | 2500 | 5700 | 42 |  |  | 3600 |
| C[C@@H]1CN(c2cc(=O)n(C)c3ccc(C#N)nc23)[C@@H](C)CN1C(c1ccc(F)cc1)c1c(F)cccc1F (single isomer, unassigned) [Example 275] | 3600 | 1900 | 230 | 3700 |  |  |
| CC(c1ccc(F)cc1)N1C[C@H](C)N(c2cc(=O)n(C)c3ccc(C#N)nc23)C[C@H]1C (single isomer, unassigned) [Example 309] | 490 | 720 | 36 | 880 |  |  |
| CCC(c1ccc(F)c(F)c1)N1C[C@H](C)N(c2cc(=O)n(C)c3ccc(C#N)nc23)C[C@H]1C (single isomer, unassigned) [Example 344] | 1000 | 1000 |  |  | 24 | 460 |
| CCc1ccc(C(c2cccc(F)c2)N2C[C@H](C)N(c3cc(=O)n(C)c4ccc(C#N)nc34)C[C@H]2C)nc1 (single isomer, unassigned) [Example 350] | 1800 | 1900 | 200 | 850 |  |  |
| CCc1ccc(C(c2cccc(F)c2)N2C[C@H](C)N(c3cc(=O)n(C)c4ccc(C#N)nc34)C[C@H]2C)nc1 (single isomer, unassigned) [Example 351] | 1300 | 640 | 31 | 89 |  |  |
| C[C@@H]1CN(c2cc(=O)n(C)c3ccc(C#N)nc23)[C@@H](C)CN1C(c1ccc(F)cc1)C1CCCCO1 (single isomer, unassigned) [Example 359] | 1100 | 280 |  | 660 | 38 |  |
